Data: paper PMC10720383, “Acetylcholinesterase Inhibition in Rats and Humans Following Acute Fenitrothion Exposure Predicted by Physiologically Based Kinetic Modeling-Facilitated Quantitative In Vitro to In Vivo Extrapolation” (Environmental Science & Technology, 2023)
Where “and” joins values, the source holds several entries; their conditions need not be identical. Equal entries are not always repeated. Where two headings read alike, the source gives them in different places.

Legend:
[1] = humans, oral exposure; cited from earlier work
erythrocyte AChE [2] = settings: rat, cited from earlier work
CYP450s = test: in vitro; format: in vitro ADME; settings: both sexes, Sprague-Dawley, rat, pH 7.4, rat liver microsomes, gender-mixed
Experimental: In vitro incubations were performed to obtain kinetic parameters for the CYP450s-catalyzed conversion of FNT to FNO and MNP using gender-mixed rat and human liver microsomes. For the PON1-dominated detoxification of FNO to MNP, in vitro incubations were conducted with gender-mixed liver microsomes or plasma from rats and humans. Sample extraction with diisopropyl ether was performed before UPLC-PDA analysis. More details on in vitro incubations, sample extraction, UPLC-PDA analysis, and calculation of kinetic parameters are provided in the Supporting Information.
Supplementary materials and methods
Chemical and biological materials […]
Human liver microsomes (pooled from 150 donors, mixed gender) and pooled male rat liver microsomes (Sprague-Dawley) were purchased from Corning (Amsterdam, The Netherlands). […] Human plasma (pooled from 25 donors, mixed gender) and rat plasma (Sprague-Dawley, mixed gender) were ordered from BioIVT (West Sussex, UK), and corresponding total protein concentrations were determined using BCA protein assay (Supporting Information). […]

[3] = rats, oral exposure; cited from earlier work
erythrocyte AChE [4] = test: Reported NOAELs from in vivo rat toxicity studies
Experimental: Acute exposure to FNT will cause neurotoxic symptoms in mammals due to AChE inhibition and subsequent acetylcholine accumulation at synaptic clefts.[10] Several no-observed-adverse-effect levels (NOAELs) derived from different in vivo rat or human toxicity data sets have been reported by different organizations, even though the same endpoint (erythrocyte AChE inhibition) was chosen. Specifically, NOAELs of 0.25 and 1.3 mg/kg BW for rats have been set by the US Environmental Protection Agency (US EPA)[11] and European Food Safety Authority (EFSA),[1] respectively, and NOAELs of 0.33 and 0.36 mg/kg BW for humans have been derived by Australian Pesticides and Veterinary Medicines Authority (APVMA)[12] and the Joint Food and Agriculture Organization of the United Nations/World Health Organization Meeting on Pesticide Residues (JMPR),[13] respectively. […]
A NOAEL of 1.3 mg/kg BW was reported by EFSA[1] from a 90 day rat study[44] considering the impaired body weight gain and reduction in erythrocyte and brain cholinesterase activity as the critical effects. The US EPA[11] reported a 5.2-fold lower NOAEL (0.25 mg/kg BW) based on the measured erythrocyte AChE inhibition after 2 weeks of FNT dosing in a 92 week rat study.[45] […]

Q: With COP(=S)(OC)Oc1ccc([N+](=O)[O-])c(C)c1 [FNT, O,O-dimethyl O-4-nitro-m-tolyl phosphorothioate] as the compound, how does the “fraction of the dose absorbed (Fa)” value [1] read?
A: 0.7

Q: And the “reported NOAEL” value (erythrocyte AChE [2]; EFSA, 90 day rat study, body weight gain and erythrocyte and brain cholinesterase activity)?
A: 1.3 mg/kg BW and 1.30 mg/kg BW

Q: What about the “reported NOAEL” value (erythrocyte AChE [2]; US EPA, erythrocyte AChE inhibition after 2 weeks of dosing in a 92 week rat study) of the same compound?
A: 0.25 mg/kg BW

Q: What about the Km (CYP450s; read-out: Km, FNT to FNO (CYP450s-catalyzed)) of the same compound?
A: 8.28 µM

Q: And the Km (CYP450s; read-out: Km, FNT to MNP (CYP450s-catalyzed))?
A: 20.5 µM

Q: And the “fraction of the dose absorbed (Fa)” value [3]?
A: 0.9

Q: What about the “US EPA rat NOAEL, fold lower than EFSA rat NOAEL” value (erythrocyte AChE [4]) of the same compound?
A: 5.2 fold
